This note sets out measurements from US6894185B2, “Substituted chiral allosteric hemoglobin modifiers” (Allós Therapeutics, Inc., priority 1999, dated 2005).

One series deals with T1, hemoglobin (Homo sapiens, UniProt P68871+P69905).
T1 construct: The whole blood samples were collected in heparinized tubes from healthy volunteers; from tissue; host or cells: human whole blood (heparinized) from healthy volunteers
The experiment in a line: In vitro whole blood studies (multi-point tonometry and blood gas analysis). The series is classed as cell-based. As to conditions: Table III. The essentials:
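Heparinized human whole blood from healthy volunteers with effector (sodium salt) at 5.0 mM, incubated ~10–12 min at 37 °C in tonometers and equilibrated at 20%, 40% and 60% O2. pO2 and sO2 measured by blood gas analyzer and co-oximeter; P50 and Hill coefficient by non-linear regression.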

T1 sequence (P69905 2-142 limits assumed): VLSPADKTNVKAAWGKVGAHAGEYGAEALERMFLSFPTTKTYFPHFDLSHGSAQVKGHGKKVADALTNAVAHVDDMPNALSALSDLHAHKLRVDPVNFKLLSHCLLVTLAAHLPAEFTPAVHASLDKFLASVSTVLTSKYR
T1 sequence (P68871 2-147 limits assumed): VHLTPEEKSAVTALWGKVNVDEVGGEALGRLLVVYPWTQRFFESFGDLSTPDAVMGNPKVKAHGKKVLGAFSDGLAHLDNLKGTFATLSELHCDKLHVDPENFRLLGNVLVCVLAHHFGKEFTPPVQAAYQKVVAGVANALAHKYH

Take `Cc1cc(C)cc(NC(=O)Cc2ccc(OC3(C(=O)N[C@H](C(=O)O)C(C)C)CCCC3)cc2)c1` [Compound 43, 1-[4-(((3,5-dimethylanilino)carbonyl)methyl)phenoxy]cyclopentanecarbonyl-L-valine]: the melting point (in general, the temperature, or range, at which the solid turns liquid) fell in the range of 104 to 106 °C. In addition, the “Whole Blood Δp50 mm Hg” value on hemoglobin is on record as 30 mm Hg.

With `Cc1cc(C)cc(NC(=O)Cc2ccc(OC3(C(=O)N[C@@H](CO)C(=O)O)CCCC3)cc2)c1` [Compound 50, 1-[4-(((3,5-dimethylanilino)carbonyl)methyl)phenoxy]cyclopentanecarbonyl-L-serine], the melting point was 58 to 59 °C. Besides, the “Whole Blood Δp50 mm Hg” value on hemoglobin was determined as 5 mm Hg.

`Cc1cc(C)cc(NC(=O)Cc2ccc(OC3(C(=O)N[C@@H](CC(C)C)C(=O)O)CCCC3)cc2)c1` [Compound 41, 1-[4-(((3,5-dimethylanilino)carbonyl)methyl)phenoxy]cyclopentanecarbonyl-L-leucine] gave a melting point of 119 to 120 °C. Besides, the “Whole Blood Δp50 mm Hg” value at hemoglobin is given as 15 mm Hg.

In turn, `Cc1cc(C)cc(NC(=O)Cc2ccc(OC3(C(=O)N[C@H](CO)C(=O)O)CCCC3)cc2)c1` [Compound 49, 1-[4-(((3,5-dimethylanilino)carbonyl)methyl)phenoxy]cyclopentanecarbonyl-D-serine] showed a melting point of 58 to 59 °C. In addition, the “Whole Blood Δp50 mm Hg” value on hemoglobin is reported as 16 mm Hg.

Take `Cc1cc(C)cc(NC(=O)Cc2ccc(OC3(C(=O)N4CCC[C@H]4C(=O)O)CCCC3)cc2)c1` [Compound 56, 1-[4-(((3,5-dimethylanilino)carbonyl)methyl)phenoxy]cyclopentanecarbonyl-L-proline]: the melting point was in the range of 71 to 72 °C. Further, on hemoglobin, the “Whole Blood Δp50 mm Hg” value was 17 mm Hg.
